# Results: patent publication US20140066365A1, “USE OF CALIXARENES ASSOCIATED WITH AN ANTIBIOTIC IN THE TREATMENT OF BACTERIAL INFECTIONS” (priority 2011, published 2014)
# Like-named read-outs stand apart in the source and are kept apart here.
# Tests used:
# Type in all cases: cell-based
# [1] = system: SaR1: Meticillin-Resistant Staphylococcus aureus without Associated Resistance; test: Antibiogram, MIC by the VITEK 2 system; conditions: SaR1
# Protocol: (§1) The bacterial and antibiogramidentification is carried out by the VITEK 2 system (bioMérieux)
# [2] = system: PaR3: Pseudomonas aeruginosa; test: Antibiogram, MIC by the VITEK 2 system
# Protocol: as §1
# [3] = system: Pseudomonas aeruginosa strain ATCC 27853 (wild type); test: MIC of the compounds used alone, microdilution in a liquid medium (CLSI); conditions: Pseudomonas aeruginosa, ATCC27853; antibiotic alone (second value of cell); P. aeruginosa ATCC 27853; read-out: MIC
# Excerpt: (§2) The MICs of the antibiotics were previously defined for each strain, by the method of microdilution in a liquid medium (CLSI (Clinical and Laboratory Standards Institute), 2003).
# [4] = system: Escherichia coli strain ATCC 25922 (wild type); test: as above; conditions: Escherichia coli, ATCC25922; antibiotic alone (second value of cell); E. coli ATCC 25922; read-out: Initial MICs
# Excerpt: as §2
# [5] = system: mucoid strain of Pseudomonas aeruginosa PaR5; test: as above; conditions: Pseudomonas aeruginosa, antibiotic alone (second value of cell), read-out: MIC
# Excerpt: as §2
# [6] = system: Pseudomonas aeruginosa strain PaR3; test: as above; conditions: Pseudomonas aeruginosa, antibiotic alone (second value of cell), read-out: MIC
# Excerpt: as §2
# [7] = system: penicillinase-producing strain of Escherichia coli without associated resistance (EcR1); test: as above; conditions: Escherichia coli, antibiotic alone (second value of cell), read-out: Initial MICs
# Excerpt: as §2
# [8] = system: cephalosporinase-hyperproducing strain of Escherichia coli (EcR2); test: as above; conditions: Escherichia coli, antibiotic alone (second value of cell), read-out: Initial MICs
# Excerpt: as §2
# [9] = system: ESBL-producing strain of Escherichia coli, having an associated resistance to the aminoglycosides (EcR3); test: as above; conditions: Escherichia coli, antibiotic alone (second value of cell), read-out: Initial MICs
# Excerpt: as §2
# [10] = system: Pseudomonas aeruginosa strain PaR2; test: microbe, parasite or virus in culture; conditions: Pseudomonas aeruginosa, antibiotic alone (second value of cell), read-out: MIC
# Excerpt: as §2
# [11] = system: EcR3: ESBL-Producing Escherichia coli; test: Antibiogram by the disk diffusion technique
# Protocol: The bacterial and antibiogramidentification is carried out by the VITEK 2 system (bioMerieux) and by the disk diffusion technique
# [12] = system: EcR1: Penicillinase-Producing Escherichia coli without Associated Resistance; test: Antibiogram, MIC by the VITEK 2 system; conditions: for MIC: Escherichia coli
# Protocol: (§3) 5.1 EcR1: Penicillinase-Producing Escherichia coli without Associated Resistance The bacterial and antibiogramidentification is carried out by the VITEK 2 system (bioMérieux) and by the disk diffusion technique.
# [13] = system: SaR1: Meticillin-Resistant Staphylococcus aureus without Associated Resistance; test: Antibiogram, inhibition diameter (Table D1)
# Protocol: as §1
# [14] = system: PaR2: Pseudomonas aeruginosa
# Protocol: (§4) The bacterial and antibiogramidentification is carried out by the VITEK 2 system (bioMérieux) and by the disk diffusion technique
# [15] = system: SaR3: Meticillin-Resistant Staphylococcus aureus; test: Antibiogram by the disk diffusion technique
# Protocol: as §4
# [16] = system: SaR4: Meticillin-Resistant Staphylococcus aureus; test: Antibiogram by the disk diffusion technique
# Protocol: as §4
# [17] = system: PaR5: Pseudomonas aeruginosa; test: Antibiogram by the disk diffusion technique
# Protocol: as §4
# [18] = system: Escherichia coli, Staphylococcus aureus and Pseudomonas aeruginosa strains; test: Chessboard technique, summary statements over all strains and combinations tested; conditions: strain not stated
# Excerpt: 1.3. Procedure: Chessboard Technique
# The same procedure is followed for the Cx1. […] Thus 64 ATB/Cx1 combinations are obtained.
# The FIC (Fractional Inhibitory Concentration Index) value is defined by the following formula: […]
# When FIC≦0.5, there is a synergistic effect between antibiotic A and antibiotic B.
# When 0.5<FIC≦1, there is an additive effect between antibiotic A and antibiotic B.
# When 1<FIC≦4, there is an indifferent effect between antibiotic A and antibiotic B.
# When FIC>4, there is an antagonistic effect between antibiotic A and antibiotic B.
# For each strain and each antibiotic/Cx1 combination, the experiments were repeated a minimum of 3 times.
# [19] = system: EcR1: Penicillinase-Producing Escherichia coli without Associated Resistance; test: Antibiogram by the disk diffusion technique; conditions: Table A1
# Protocol: as §3
# [20] = system: EcR2: Cephalosporinase-Hyperproducing Strain of Escherichia coli; test: Antibiogram by the disk diffusion technique
# Protocol: The bacterial and antibiogramidentification is carried out by the VITEK 1 system (bioMérieux) and by the disk diffusion technique
smiles,measurement,setting,value
NC[C@H]1O[C@H](O[C@H]2[C@H](O)[C@@H](O[C@H]3O[C@H](CO)[C@@H](O)[C@H](N)[C@H]3O)[C@H](N)C[C@@H]2N)[C@H](N)C[C@@H]1O [Tobramycin],CA-SFM Interpretation,[1]; Cc CA-SFM 2011,Susceptible
same,CLSI Interpretation,[1]; Cc CLSI 2011,Susceptible
same,EUCAST Interpretation,[1]; Cc EUCAST 2011,Susceptible
same,Results,"[1]; Table D1, from MIC",Susceptible
same,MIC mg/L,[1]; Table D2,≦1 mg/L
same,MIC,"[1]; Staphylococcus aureus, Table D1, read-out: MIC",≤ 1 µg/mL
same,CA-SFM Interpretation,[2]; Cc CA-SFM 2011,Resistant
same,CLSI Interpretation,[2]; Cc CLSI 2011,Resistant
same,EUCAST Interpretation,[2]; Cc EUCAST 2011,Resistant
same,MIC,"[2]; Pseudomonas aeruginosa, Table H2, read-out: MIC",≥ 16 µg/mL
same,MIC,[2]; Table H1,≧16
same,Results,[2]; Table H1,Resistant
same,MIC,[3],0.5 µg/mL
same,MIC,[4],0.25 µg/mL
same,MIC,[5],1 µg/mL
same,MIC,[6],64 µg/mL
same,MIC,[7],0.25 µg/mL
same,MIC,[8],4 µg/mL
same,MIC,[9],4 µg/mL
same,MIC,[10],1 µg/mL
same,CA-SFM Interpretation,[11]; Cd CA-SFM 2011,Resistant
same,CLSI Interpretation,[11]; Cd CLSI 2011,Resistant
same,EUCAST Interpretation,[11]; Cd EUCAST 2011,Resistant
same,Diameter,[11]; Table C1,6 mm
same,Results,"[11]; Table C1, against Dmin Dmax",Resistant
same,diameter in mm,[11]; Table C2,6 mm
same,CA-SFM Interpretation,"[12]; EcR1, MIC against Cc CA-SFM 2011",Susceptible
same,CLSI Interpretation,"[12]; EcR1, MIC against Cc CLSI 2011",Susceptible
same,EUCAST Interpretation,"[12]; EcR1, MIC against Cc EUCAST 2011",Susceptible
same,Results,"[12]; EcR1, interpretation of the MIC, Table A1",Susceptible
same,MIC,"[12]; EcR1, Table A2, read-out: MIC mg/L (diameter in mm)",≤ 1 mg/L
same,MIC,"[12]; EcR1, VITEK 2, Table A1, read-out: MIC",≤ 1 mg/L
same,Diameter,[13],22 mm
same,Results,"[13]; from diameter, against Dmin Dmax",Susceptible
same,CA-SFM Interpretation,[14]; Cd CA-SFM 2011,Susceptible
same,CLSI Interpretation,[14]; Cd CLSI 2011,Susceptible
same,EUCAST Interpretation,[14]; Cd EUCAST 2011,Susceptible
same,Diameter,[14]; Table G1,24 mm
same,Results,"[14]; Table G1, against Dmin-Dmax",Susceptible
same,diameter in mm,[14]; Table G2,24 mm
same,CA-SFM Interpretation,[15]; Cd CA-SFM 2011,Resistant
same,CLSI Interpretation,[15]; Cd CLSI 2011,Resistant
same,EUCAST Interpretation,[15]; Cd EUCAST 2011,Resistant
same,Diameter,[15]; Table E1,6 mm
same,Results,"[15]; Table E1, against Dmin Dmax",Resistant
same,diameter in mm,[15]; Table E2,6 mm
same,Diameter,[16]; Table F1,6
same,Results,"[16]; Table F1, rows with a diameter",Resistant
same,Diameter,"[16]; Table F2, diameters",6 mm
same,CA-SFM Interpretation,"[16]; from diameter, CA-SFM 2011",Resistant
same,CLSI Interpretation,"[16]; from diameter, CLSI 2011",Resistant
same,EUCAST Interpretation,"[16]; from diameter, EUCAST 2011",Resistant
same,Diameter,"[17]; PaR5, Table I1",28 mm
same,Results,"[17]; PaR5, Table I1, against Dmin-Dmax",Susceptible
same,diameter in mm,"[17]; disk diffusion inhibition diameter, strain PaR5",28 mm
same,CA-SFM Interpretation,"[17]; disk diffusion, PaR5, versus critical diameter CA-SFM 2011",Susceptible
same,CLSI Interpretation,"[17]; disk diffusion, PaR5, versus critical diameter CLSI 2011",Susceptible
same,EUCAST Interpretation,"[17]; disk diffusion, PaR5, versus critical diameter EUCAST 2011, for ** antibiotics the disk load differs and the EUCAST interpretation is not applicable",Susceptible
same,interaction between the antibiotic and Cx1,[18],synergism
same,Diameter,"[19]; EcR1, disk diffusion",19 mm
same,Results,"[19]; EcR1, interpretation of the diameter against Dmin Dmax",Susceptible
same,Diameter,"[20]; EcR2, disk diffusion, Table B1",10
same,Results,"[20]; EcR2, rows that print a diameter, Table B1",Resistant
same,Diameter,"[20]; EcR2, Table B2, diameters",10 mm
same,CA-SFM Interpretation,"[20]; EcR2, from diameter, CA-SFM 2011",Resistant
same,CLSI Interpretation,"[20]; EcR2, from diameter, CLSI 2011",Resistant
same,EUCAST Interpretation,"[20]; EcR2, from diameter, EUCAST 2011",Resistant
